Assays:
[1] = tested on: antibodies in sera of metastatic breast cancer patients; assay: Glycan array binding of sera of metastatic breast cancer patients; set-up: species or system human; conditions: sera diluted 1:25; for binding of antibodies from breast cancer patients to glycans: 9 metastatic breast cancer patients, IgG, IgM and IgA detected; for level of serum antibodies against the glycan in MBC patients compared to healthy individuals: 9 MBC patients vs ten healthy individuals
Protocol: Individual (not pooled) sera were collected from 9 patients who were diagnosed with metastatic breast cancer (MBC). Blood samples were collected before treatment, so that therapeutic intervention would not interfere with patient immune responses. One patient with breast cancer but with good prognosis (IDC, Stage 1) was also included in the study. As control, or “healthy” sera, sera from ten healthy individuals, 5 female and 5 male, with no known malignancies was collected.
Sera were diluted 1:25 with PBS containing 3% BSA, and placed on the glycan array slide in humidified chamber at room temperature for 90 min. The glycan array slide was then rinsed gently with PBS/0.05% Tween, incubated with biotinylated goat antibody against human IgG, IgM and IgA, rinsed in PBS/0.05% Tween, and incubated with streptavidin-Alexa488 fluorescent dye. Following rinses in PBS/0.05% Tween and H2O, glycan array slides were dried and scanned using the commercial DNA array scanner. […] Signal to background was typically greater 50:1 and no background subtractions were performed. Data were plotted using MS Excel software.

[2] = tested on: Human anti-HIV 2G12 monoclonal antibody; assay: Glycan array binding of 2G12; conditions: 2G12 (30 μg/mL) pre-complexed with goat anti-human-IgG-FITC (15 μg/mL)
Excerpt: Glycan array fabrication.
Glycan Binding Protein binding assay.
Image acquisition and signal processing. […] Data were plotted using MS Excel software.

[3] = target: T1, chST6GalNAc-I (Gallus gallus, UniProt Q92183); assay: chST6GalNAc-I activity on small acceptor molecules; type: biochemical, chicken; conditions: α-D-galacto derivatives as acceptors
T1 construct: made in house; host or cells: insect cells
T1 sequence (Q92183 whole entry): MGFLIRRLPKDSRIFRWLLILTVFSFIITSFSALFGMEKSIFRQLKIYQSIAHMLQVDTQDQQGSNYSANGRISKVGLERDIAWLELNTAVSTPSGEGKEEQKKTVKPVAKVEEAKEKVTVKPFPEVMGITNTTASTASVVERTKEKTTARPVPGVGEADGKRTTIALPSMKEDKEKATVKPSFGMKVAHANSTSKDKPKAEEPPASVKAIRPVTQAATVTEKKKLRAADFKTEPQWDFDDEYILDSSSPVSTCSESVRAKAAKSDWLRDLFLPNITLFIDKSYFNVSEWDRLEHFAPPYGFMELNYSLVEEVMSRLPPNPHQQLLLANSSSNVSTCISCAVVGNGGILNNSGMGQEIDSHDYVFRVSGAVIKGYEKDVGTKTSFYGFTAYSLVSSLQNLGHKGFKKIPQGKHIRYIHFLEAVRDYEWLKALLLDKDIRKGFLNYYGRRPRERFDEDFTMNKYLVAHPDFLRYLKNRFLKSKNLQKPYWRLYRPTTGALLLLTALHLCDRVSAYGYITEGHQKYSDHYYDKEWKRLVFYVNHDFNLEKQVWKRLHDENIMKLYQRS
Excerpt: The inventors have previously reported the cloning, expression, and characterization of chicken ST6GalNAc-I and its use in preparative synthesis of the O-linked sialoside antigens, STn-, α(2-6)SiaT-, α(2-3)SiaT- and Di-SiaT-antigen. Blixt, O.; Allin, K.; Pereira, L.; Datta, A. and Paulson, J. C., J. Am. Chem. Soc. 2002, 124, 5739-5746. Briefly, the recombinant enzyme was expressed in insect cells and purified by CDP-sepharose affinity chromatography to generate approximately 10 U/L of cell culture.

[4] = target: Con A (Canavalia ensiformis, UniProt P02866); conditions: printing times up to 5 hours
Protocol: Glycan Binding Protein binding assay. Printed slides were analyzed without any further modification of the surface. Slides were incubated in either a one step procedure with labeled proteins, or a sandwich procedure in which the bound glycan binding protein (GBP) was overlaid with labeled secondary antibodies or GBP's pre-complexed with labeled antibodies. GBP's were added at a concentration of 5-50 μg/mL in buffer (usually PBS containing 0.005-0.5% Tween-20). Secondary antibodies (10 μg/mL in PBS) were overlaid on bound GBP. GBP-antibody pre-complexes were prepared in a molar ratio of 1:0.5:0.25 (5-50 μg/mL) for GBP:2° antibody:3° antibody, respectively (15 min on ice). […] Slides were subsequently washed by successive rinses in (i) PBS-Tween (0.05%), (ii) PBS and (iii) de-ionized water, then immediately subjected to imaging.
Image acquisition and signal processing. Fluorescence intensities were detected using a ScanArray 5000 (Perkin Elmer, Boston, Mass.) confocal scanner and image analyses were carried out using ImaGene image analysis software (BioDiscovery Inc, El Segundo, Calif.).
Binding of fluorescein-labeled concanavalin A (con A) was used as a measure of ligand coupling.

## NNa6Ab4GNb3Ab4GNb#sp1 6SiaLacNAc-LacNAc [glycan 189]
[1]
  binding of antibodies from breast cancer patients to glycans: will also bind

## GNb3Ab4Gb#sp1 LNT-2 [glycan 123]
[1]
  level of serum antibodies against the glycan in MBC patients compared to healthy individuals: higher than in the healthy individuals
  binding of antibodies from breast cancer patients to glycans: bind

## NNa6ANa#sp2 6SiaβGalNAc [glycan 190]
[1]
  level of serum antibodies against the glycan in MBC patients compared to healthy individuals: significantly higher levels
  binding of antibodies from breast cancer patients to glycans: bind

## Fa2Ab3Anb3Aa4Ab4G#sp3 Globo-H [glycan 97]
[1]
  level of serum antibodies against the glycan in MBC patients compared to healthy individuals: higher than in the healthy individuals
  binding of antibodies from breast cancer patients to glycans: bind

## NNa3Ab4GNb3Ab4GNb3Ab4GNb#sp1 3′Sialyl-tri-LacNAc [glycan 180]
[1]
  binding of antibodies from breast cancer patients to glycans: will also bind

## NJa6ANa#sp2 Neu5Gc6GalNAc (STn) [glycan 155]
[1]
  binding of antibodies from breast cancer patients to glycans: bind

## (Ab4GNb)3#sp1 Tri-LacNAc [glycan 9]
[1]
  binding of antibodies from breast cancer patients to glycans: will also bind

## NNa3Ab4GNb3Ab4GNb#sp1 3′SialylDiLacNAc [glycan 179]
[1]
  binding of antibodies from breast cancer patients to glycans: will also bind

## Man-9#aa Man9-aminoacid [glycan 145]
[2]
  binding of 2G12 to glycans on the array: smaller level of binding

## Ab4GNb3Ab4GNb#sp1 LacNAc-LacNAc [glycan 76]
[1]
  binding of antibodies from breast cancer patients to glycans: will also bind

## Ab3ANb4[NNa3]Ab4Gb#sp1 GM1 [glycan 58]
[1]
  level of serum antibodies against the glycan in MBC patients compared to healthy individuals: higher than in the healthy individuals
  binding of antibodies from breast cancer patients to glycans: bind

## CC(=O)N[C@H]1C(O)O[C@H](CO)[C@H](O)[C@@H]1O (stereo partly drawn) [D-GalNAc]
[3]
  chST6GalNAc-I activity, cpm: 0 cpm
  chST6GalNAc-I activity, nmol/mg x min^−1: 0.00 nmol/mg x min^−1

## Ab4GNb3Ab4[Fa3]GNb3Ab4[Fa3]GNb#sp1 LacNAc-LeX-LeX [glycan 73]
[1]
  binding of antibodies from breast cancer patients to glycans: will also bind

## NNa6Ab4GNb3Ab4[Fa3]GNb3Ab4[Fa3]GNb#sp1 6Sia-LacNAc-LeX-LeX [glycan 188]
[1]
  binding of antibodies from breast cancer patients to glycans: will also bind

## Ma2Ma3[Ma2Ma6]Ma#sp3 [glycan 136]
[2]
  binding of 2G12 to glycans on the array: strong binding
[2]; mannose containing glycans on the array
  Rel. spec. (relative binding activity of 2G12): +++ (+++ >25,000)
[4]
  variation in maximal binding of con A: less than 10%

## Fa2Ab4GNb3Ab4GNb#sp1 H-type-2-LacNAc [glycan 106]
[1]
  binding of antibodies from breast cancer patients to glycans: will also bind

## NNa3Ab4[Fa3]GNb3Ab4GNb#sp1 SLeXLacNAc [glycan 174]
[1]
  binding of antibodies from breast cancer patients to glycans: will also bind

## Fa2Ab4GNb3Ab4GNb3Ab4GNb#sp1 H-type2-LacNAc-LacNAc [glycan 107]
[1]
  binding of antibodies from breast cancer patients to glycans: will also bind

## GNb3Ab4GNb#sp1 GlcNAcβ3LacNAc [glycan 124]
[1]
  binding of antibodies from breast cancer patients to glycans: will also bind

B1: Ceruloplasmine (protein, UniProt P00450 20-1065, looked up)
Ceruloplasmin: KEKHYYIGIIETTWDYASDHGEKKLISVDTEHSNIYLQNGPDRIGRLYKKALYLQYTDETFRTTIEKPVWLGFLGPIIKAETGDKVYVHLKNLASRPYTFHSHGITYYKEHEGAIYPDNTTDFQRADDKVYPGEQYTYMLLATEEQSPGEGDGNCVTRIYHSHIDAPKDIASGLIGPLIICKKDSLDKEKEKHIDREFVVMFSVVDENFSWYLEDNIKTYCSEPEKVDKDNEDFQESNRMYSVNGYTFGSLPGLSMCAEDRVKWYLFGMGNEVDVHAAFFHGQALTNKNYRIDTINLFPATLFDAYMVAQNPGEWMLSCQNLNHLKAGLQAFFQVQECNKSSSKDNIRGKHVRHYYIAAEEIIWNYAPSGIDIFTKENLTAPGSDSAVFFEQGTTRIGGSYKKLVYREYTDASFTNRKERGPEEEHLGILGPVIWAEVGDTIRVTFHNKGAYPLSIEPIGVRFNKNNEGTYYSPNYNPQSRSVPPSASHVAPTETFTYEWTVPKEVGPTNADPVCLAKMYYSAVEPTKDIFTGLIGPMKICKKGSLHANGRQKDVDKEFYLFPTVFDENESLLLEDNIRMFTTAPDQVDKEDEDFQESNKMHSMNGFMYGNQPGLTMCKGDSVVWYLFSAGNEADVHGIYFSGNTYLWRGERRDTANLFPQTSLTLHMWPDTEGTFNVECLTTDHYTGGMKQKYTVNQCRRQSEDSTFYLGERTYYIAAVEVEWDYSPQREWEKELHHLQEQNVSNAFLDKGEFYIGSKYKKVVYRQYTDSTFRVPVERKAEEEHLGILGPQLHADVGDKVKIIFKNMATRPYSIHAHGVQTESSTVTPTLPGETLTYVWKIPERSGAGTEDSACIPWAYYSTVDQVKDLYSGLIGPLIVCRRPYLKVFNPRRKLEFALLFLVFDENESWYLDDNIKTYSDHPEKVNKDDEEFIESNKMHAINGRMFGNLQGLTMHVGDEVNWYLMGMGNEIDLHTVHFHGHSFQYKHRGVYSSDVFDIFPGTYQTLEMFPRTPGIWLLHCHVTDHIHAGMETTYTVLQNEDTKSG
[1]
  level of serum antibodies against the glycan in MBC patients compared to healthy individuals: significantly higher levels
  binding of antibodies from breast cancer patients to glycans: bind

— patent US20080019968A1, “DETECTION, PREVENTION AND TREATMENT OF BREAST CANCER” (The scripps Reasearch Institute, priority 2004, published 2008)
